# Results taken from patent publication US20090105245A1, “METHODS FOR TREATING MACULAR EDEMA AND OCULAR ANGIOGENESIS USING AN ANTI-INFLAMMATORY AGENT AND A RECEPTOR TYROSINE KINASE INHIBITOR” (priority 2006, published 2009).
# Entries after “also recorded” stand apart in the source; their conditions may differ.
# B1: ranibizumab (antibody, chains of the INN, looked up, V domains shown)
# VH: EVQLVESGGGLVQPGGSLRLSCAASGYDFTHYGMNWVRQAPGKGLEWVGWINTYTGEPTYAADFKRRFTFSLDTSKSTAYLQMNSLRAEDTAVYYCAKYPYYYGTSHWYFDVWGQGTLVTVSS
# VL: DIQLTQSPSSLSASVGDRVTITCSASQDISNYLNWYQQKPGKAPKVLIYFTSSLHSGVPSRFSGSGSGTDFTLTISSLQPEDFATYYCQQYSTVPWTFGQGTKVEIK
# modifications: Fab
# Key:
# [1] = tested on: laser-induced choroidal neovascularization in the mouse; test: Mouse laser-induced CNV, topical NSAID drops; type: in vivo; conditions: for CNV lesions at Bruch's membrane rupture sites vs vehicle: follow-up experiment
# Procedure: METHODS: Choroidal neovascularization was generated by modification of a previously described technique [Tobe, 1998 #448]. Briefly, 4 to 5 week old female C57BL/6J mice were anesthetized with ketamine hydrochloride (100 mg/kg body weight) and the pupils were dilated with 1% tropicamide. Three burns of 532 nm diode laser photocoagulation (75 μm spot size, 0.1 seconds duration, 120 mW) were delivered to each retina using the slit lamp delivery system of an OcuLight GL Photocoagulator (Iridex, Mountain View, Calif.) and a hand held cover slide as a contact lens. Burns were performed in the 9, 12, and 3 o'clock positions of the posterior pole of the retina. Production of a bubble at the time of laser, which indicates rupture of Bruch's membrane, is an important factor in obtaining CNV [Tobe, 1998 #448], so only burns in which a bubble was produced were included in the study. […] In some experiments, both eyes were treated with drug and these mice were compared to littermates in which both eyes were treated with vehicle. In other experiments, one eye was treated with drug and the fellow eye was treated with vehicle. Eyes were rapidly dissected for choroidal flat mounts or frozen in optimum cutting temperature embedding compound (OCT; Miles Diagnostics, Elkhart, Ind.).
# The sizes of CNV lesions were measured in choroidal flat mounts (Edelman and Castro, 2000). Mice used for the flat mount technique were anesthetized and perfused with 1 ml of phosphate-buffered saline containing 50 mg/ml of fluorescein-labeled dextran (2×10^6 average mw, Sigma, St. Louis, Mo.) as previously described (Tobe et al., 1998a). The eyes were removed and fixed for 1 hour in 10% phosphate-buffered formalin. The cornea and lens were removed and the entire retina was carefully dissected from the eyecup. Radial cuts (4-7, average 5) were made from the edge to the equator and the eyecup was flat mounted in Aquamount with the sclera facing down. Flat mounts were examined by fluorescence microscopy on an Axioskop microscope (Zeiss, Thornwood, N.Y.) and images were digitized using a 3 color CCD video camera (IK-TU40A, Toshiba, Tokyo, Japan) and a frame grabber. Image-Pro Plus software (Media Cybernetics, Silver Spring, Md.) was used to measure the total area of hyperfluorescence associated with each burn, corresponding to the total fibrovascular scar. The areas within each eye were averaged to give one experimental value per eye for plotting the areas in the figures.
# In some mice, the eyes were rapidly removed and frozen in optimum cutting temperature embedding compound (OCT; Miles Diagnostics, Elkhart, Ind.). Ten μm frozen sections were cut through entire lesions and the sections were histochemically stained with biotinylated Griffonia simplicifolia lectin B4 (GSA, Vector Laboratories, Burlingame, Calif.) which selectively binds to vascular cells. Slides were incubated in methanol/H2O2 for 10 minutes at 4° C., washed with 0.05 M Tris-buffered saline, pH 7.6 (TBS), and incubated for 30 minutes in 10% normal porcine serum. Slides were incubated 2 hours at room temperature with biotinylated GSA and after rinsing with 0.05M TBS, they were incubated with avidin coupled to peroxidase (Vector Laboratories) for 45 minutes at room temperature. The slides were developed with HistoMark Red (Kirkegaard and Perry, Cabin John, Md.) to give a red reaction product and counter stained with Contrast Blue (Kirkegaard and Perry).
# [2] = tested on: preretinal neovascularization in the mouse model of oxygen-induced retinopathy; test: Mouse model of oxygen-induced ischemic retinopathy, topical drops; type: in vivo; conditions: for retinal (preretinal) neovascularization vs vehicle: P12-P17
# Procedure: METHODS: Ischemic retinopathy was produced in C57BL/6J mice by a method described by Smith et al [Smith, 1994 #50]. Seven-day-old (P7) mice and their mothers were placed in an airtight incubator and exposed to an atmosphere of 75±3% oxygen for 5 days. Incubator temperature was maintained at 23±2° C., and oxygen was measured every 8 hours with an oxygen analyzer. After 5 days, the mice were removed from the incubator, placed in room air, and drug treatment was begun. Mice were given one drop four times a day in masked fashion. At P17, after 5 days of treatment, mice were sacrificed, eyes were rapidly removed and frozen in OCT.
# Ocular frozen sections (10 μm) were histochemically stained with GSA as described above except that diaminobenzidine was used to give a brown reaction product. Slides were counterstained with eosin, which stains the internal limiting membrane and mounted with Cytoseal. To perform quantitative assessments, 10 μm serial sections were cut through the entire eye starting with sections that included the iris root on one side of the eye and proceeding to the iris root on the other side. Every tenth section, roughly 100 μm apart, were stained with GSA, examined with an Axioskop microscope, and images were digitized using a 3 CCD color video camera and a frame grabber. Image-Pro Plus software was used to delineate GSA-stained cells on the surface of the retina and their area was measured. For plotting the area measurements for the figure, the mean of the measurements from each eye was used as a single experimental value.
# [3] = tested on: VEGF mRNA; test: Semi-quantitative RT-PCR of retinal VEGF mRNA in mice with ischemic retinopathy; type: in vivo, mouse; conditions: P12-P17
# Procedure: Mice with ischemic retinopathy were treated with 0.1% or 0.5% Nepafenac drops or vehicle drops four times a day between P12 and P17 and then sacrificed and retinal RNA was isolated using the guanidine isothiocyanate method as described by Chomczynski and Sacchi [Chomczynski, 1987 #30]. Reverse transcription was carried out with 0.5 μg of total RNA, reverse transcriptase (SuperScript II, Life Technologies, Gaithersburg, Md.), and 5.0 μM oligo d(T) primer. Aliquots of the cDNAs were used for PCR amplification with primers specific for VEGF, (5′-TTACTGCTGTACCTCCACC-3′) and (5′-ACAGGACGGCTTGAAGATG-3′). Titrations were performed to insure that PCR reactions were carried out in the linear range of amplification. Mouse S16 ribosomal protein primers (5′-[…]-3′ and 5′-[…]-3′) were used to provide an internal control for the amount of template in the PCR reactions.
# [4] = tested on: retinal vasculature and neuronal function in the STZ-diabetic rat; test: STZ-diabetic rat, topical eyedrops for 2 months or 9 months; type: in vivo
# Procedure: Methods. Streptozotocin (STZ)-induced diabetic rats were assigned to 3 groups (untreated control, Nepafenac eyedrops, and vehicle eyedrops) for comparison to nondiabetic controls. Eyedrops were administered in both eyes 4 times/day using both subacute (2 mos) or chronic dosing paradigms (9 mos). During the 2 month study, prostaglandin E2 (PGE2), cyclooxygenase (COX)-2, and VEGF were measured by immunoassay, superoxide generation was measured by bioluminescence, activities of caspases 3 and 6 were measured fluorimetrically, and nitric oxide (NO) was estimated from levels of nitrite plus nitrate. Moreover, retinal leukostasis was quantified after intravenous perfusion with FITC-concanavalin A. During the 9-month study, vascular lesions associated with diabetic retinopathy were quantitated after isolation of the retinal vasculature by the trypsin digest technique, and loss of cells in the ganglion cell layer was evaluated in retinal cross-sections. In the chronic dosing study, retinal function also was assessed by measuring electroretinograms (ERGs) under dark and light adapted conditions to evaluate rod and cone pathways, respectively. The impact of topical ocular administration on corneal protease activity was assessed with MMP mRNA analysis and zymography. The signals were imported into Matlab™ (Mathworks Inc.) for further processing and the oscillatory potentials (OP's) were isolated using a 9 pole Butterworth filter with 34 Hz cutoff frequency (unity gain above 40 Hz and >12 dB attenuation 0 to 30 Hz). To simplify the analysis of OP timing the summed latency was calculated for OP's 1-4 similar to Hancock and Kraft, where TTP=(t1+t2+t3+t4) and tx=the time to peak of OPx.
# [5] = tested on: visual acuity; conditions: Phase III, at 24 months, up to; cited from earlier work
# [6] = 0.1% drops 4 times a day for 14 days
# [7] = eyedrops 4 times/day, 2 months of diabetes
molecule,measurement,setting,value
O=C(O)Cc1ccccc1Nc1c(Cl)cccc1Cl [diclofenac],CNV lesions at Bruch's membrane rupture sites vs vehicle,[1]; [6],no difference from vehicle-treated eyes
O=C(c1ccccc1)c1ccc2n1CCC2C(=O)O (centres unmarked) [ketorolac tromethamine],size of CNV lesions vs vehicle,[1]; 0.5% drops 4 times a day for 1 week,no difference in the size of CNV lesions between the two groups
same,survival,[1]; 0.5% drops or vehicle 4 times a day for 1 week,All mice survived
same,CNV vs vehicle in surviving mice,"[1]; 0.5% drops, 2 weeks, numbers insufficient for statistics",did not appear to have less CNV than mice treated with vehicle
same,mortality,"[1]; 0.5% drops, two weeks",high mortality
"NC(=O)Cc1cccc(C(=O)c2ccccc2)c1N [nepafenac, 2-Amino-3-benzoyl-phenylacetamide]",CNV lesions at Bruch's membrane rupture sites vs vehicle,[1]; 0.03% drops 4 times a day for 14 days,significantly smaller areas of CNV at Bruch's membrane rupture sites than did eyes treated with vehicle
same,CNV lesions at Bruch's membrane rupture sites vs vehicle,"[1]; 0.03% drops 4 times a day for 14 days, listed as nepafanac",significantly smaller than those in eyes treated with vehicle
same,CNV lesions at Bruch's membrane rupture sites vs vehicle,[1]; [6],significantly smaller areas of CNV at Bruch's membrane rupture sites than did eyes treated with vehicle
same,CNV lesions at Bruch's membrane rupture sites vs vehicle,"[1]; 0.1% drops 4 times a day for 14 days, listed as nepafanac",significantly smaller than those in eyes treated with vehicle
same,CNV area vs vehicle,"[1]; 0.1% drops 4 times a day, 2 weeks, first experiment",significantly smaller CNV lesions than treatment with vehicle
same,area of CNV in treated eye compared to vehicle-treated fellow eye,"[1]; 0.1% drops in one eye, vehicle in fellow eye",significantly less
same,CNV area vs vehicle,"[1]; 0.5% drops 4 times a day, 2 weeks",significantly smaller CNV lesions than treatment with vehicle
same,inhibition of laser-induced choroidal neovascularization,"[1]; topical, mouse (FIG. 10)",inhibits laser-induced choroidal neovascularization
same,retinal (preretinal) neovascularization vs vehicle,[2]; 0.1% drops 4 times a day,significantly less retinal neovascularization; also recorded: significantly less preretinal NV
same,retinal (preretinal) neovascularization vs vehicle,[2]; 0.5% drops 4 times a day,significantly less retinal neovascularization; also recorded: significantly less preretinal NV
same,inhibition of preretinal neovascularization,"[2]; topical, mouse OIR (FIG. 11)",inhibits preretinal neovascularization
same,retinal VEGF mRNA vs vehicle,[3]; 0.1% drops 4 times a day,less VEGF mRNA than retinas from eyes treated with vehicle
same,retinal VEGF mRNA vs vehicle,[3]; 0.5% drops 4 times a day,less VEGF mRNA than retinas from eyes treated with vehicle
same,"protection against OP (oscillatory potential) delays, ERG","[4]; 0.3% topical, chronic dosing",completely protected
same,inhibition of morphologic vascular changes,"[4]; 9 months of diabetes, STZ-diabetic rat (FIG. 12)",inhibits morphologic vascular changes present at 9 months of diabetes
same,diabetes-induced activation of caspases 3 and 6 in retina,[4]; [7],partially inhibited
same,retinal VEGF or NO levels,[4]; [7],no effect
same,"TUNEL-positive capillary cells, acellular capillaries and pericyte ghosts","[4]; eyedrops 4 times/day, chronic dosing (9 months)",significantly inhibited all of these retinal abnormalities
same,corneal protease activity vs vehicle,"[4]; topical, after 9 months of diabetes",No significant changes
same,OP summed latency (TTP) vs nondiabetic control animals,"[4]; topical, chronic dosing",statistically no different than nondiabetic control animals
B1,patients with improved visual acuity,[5],35-40%
